Patent US20260335388A1, “COMBINATION THERAPIES WITH ONCOLYTIC ADENOVIRUS AND TOPOISOMERASE I INHIBITORS OR PRODRUGS THEREOF” (priority 2022, published 2026)

Assays:
[1] = test system: s.c. retinoblastomas (Y79 and RBT-7); assay: VCN-01 genomes in s.c. xenografts (Y79 and RBT-7); format: in vivo, mouse
Procedure: To quantify genome copies of VCN-01 in cell cultures or mouse tissues, total DNA was extracted and real time quantitative polymerase chain reactions (RT-qPCR) was performed as described (Cascallo et al., “Systemic toxicity-efficacy profile of ICOVIR-5, a potent and selective oncolytic adenovirus based on the pRB pathway,” Mol Ther 2007; 15(9):1607-15).
Intratumoral infection of VCN-01. S.c. tumors were established in athymic nude mice. Upon xenograft engraftment, mice received one intratumoral injection of VCN-01, alone or combined with one cycle of topotecan, […], or hydroxyurea. At 5 and 15 days after VCN-01 inoculation, genome copies of VCN-01 were quantified in the tumors and immunostained for E1A and E2F-1.
To establish s.c. tumors, 10^6 retinoblastoma cells suspended in 25 µL matrigel (Corning, Glendale, AZ, USA) were injected in athymic nude mice. Upon xenograft engraftment (tumor volumes ranging 100-200 mm^3), treatments were started. Mice received VCN-01 (3×10^9 vp in 20 µL vehicle, single intratumoral injection at day 1), alone or combined with one cycle of topotecan (0.6 mg/kg, intraperitoneal -i.p.-, daily at days 1-5), […] (40 mg/kg, i.p, one single dose at day 1), or hydroxyurea (200 mg/kg, i.p., daily at days 1-5). […] In tumor homogenates, genome copies of VCN-01 were quantified. […]

[2] = test system: Y79 xenografts; assay: Ocular survival, Y79 intraocular xenografts (first study); format: in vivo, mouse; settings: control 37 days; P vs control: combination 0.0005, topotecan 0.062, standard of care 0.674, VCN-01 1 (FIG. 20A)
Procedure: Antitumor activity in retinoblastoma. […] For ocular tumors, treatments were started at day 8 after inoculation (when tumors were appreciable by fundus examination).
In a first study, one dose of VCN-01 (3×10^8 vp in 2 μL vehicle, intravitreal, day 15), therapeutic schedules of topotecan or standard of care (SoC) retinoblastoma chemotherapy, or their combinations, was administered in the Y79 intraocular xenograft. For topotecan, mice received 0.6 mg/kg i.p. injections on days 8-12 and 29-33. […] 40 mg/kg, on days 8 and 29, and etoposide 6 mg/kg, on days 8-10 and 29-31.

CC[C@@]1(O)C(=O)OCc2c1cc1n(c2=O)Cc2cc3c(CN(C)C)c(O)ccc3nc2-1 [Topotecan, topotecan]
counts of viral genomes, 5 days ([1]; 5 days after intratumoral VCN-01 (FIG. 18G)): higher counts of viral genomes
counts of viral genomes, 15 days ([1]; 15 days after intratumoral VCN-01 (FIG. 19B)): Different counts of viral genomes were not observed
median ocular survival [2]: 58 days
